Measured values as given in patent US7264932B2, “Nuclease inhibitor cocktail” (Applera Corporation, priority 1999, dated 2007).

Legend:
Format in all cases: biochemical
E. coli RNase 1 = E. coli RNase 1 (Escherichia coli, UniProt P21338); test: Radiolabeled RNA probe degradation gel assay, RNase 1; details: 1 U RNase 1, 30 minute incubation at 37° C.
Experimental: (§1) The activity of anti-nuclease antibodies is readily determined using radiolabeled RNA or DNA to detect the inhibition of RNase or DNase by the anti-nuclease antibodies. In general, the nuclease and anti-nuclease antibody are separately diluted, typically in 1× assay buffer. Assay buffer, nuclease and anti-nuclease antibody are then added to 0.5 ml microfuge tubes. For assaying anti-RNase activity, a mixture comprising assay buffer, RNA and radiolabeled RNA is added to the microfuge tubes. The “MIX” of assay buffer, RNA and radiolabeled RNA is generally prepared by combining 10× Assay Buffer (0.9 μl/rxn), 5 mg/ml yeast RNA (0.4 μl/rxn), ^32-β actin RNA (1 μl/rxn), and nuclease-free H2O (6.7 μl/rxn) for a total of 9 μl/rxn. The tubes are vortexed and microfuged, then incubated at 37° C. for 30 minutes. After incubation, a portion of the tube contents is removed and placed into gel loading buffer. Then the tube contents and the gel loading buffer are mixed, and the combination is loaded onto a gel, typically a 8M urea/5% acrylamide gel, which is exposed to film. […]
(§2) The activity of an anti-nuclease cocktail is readily determined using radiolabeled RNA or DNA to detect the inhibition of nuclease by anti-nuclease antibodies in the anti-nuclease cocktail. […]

RNase T1 = target: T1, RNase T1 (Aspergillus oryzae, UniProt P00651); test: Radiolabeled RNA probe degradation gel assay, RNase T1; details: 0.15 U RNase T1
T1 sequence (P00651 27-130): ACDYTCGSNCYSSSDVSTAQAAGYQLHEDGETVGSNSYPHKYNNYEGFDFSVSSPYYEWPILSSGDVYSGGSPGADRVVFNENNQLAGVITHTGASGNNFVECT
Experimental: as §1, §2

RNase A = target: T2, RNase A (Bos taurus, UniProt P61823); test: Radiolabeled RNA probe degradation gel assay, RNase A; details: DTT up to 250 mM, at 37° C.
T2 sequence (P61823 27-150): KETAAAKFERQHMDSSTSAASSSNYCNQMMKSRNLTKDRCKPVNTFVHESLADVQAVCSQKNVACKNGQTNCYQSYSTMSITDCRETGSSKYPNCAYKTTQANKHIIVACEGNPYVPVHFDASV
Experimental: The activity of an anti-nuclease cocktail is readily determined using radiolabeled RNA or DNA to detect the inhibition of nuclease by anti-nuclease antibodies in the anti-nuclease cocktail. […] Assay buffer, nuclease and an anti-nuclease cocktail are then added to 0.5 ml microfuge tubes. A mixture comprising assay buffer, RNA or DNA and radiolabeled RNA or DNA is added to the microfuge tubes, and the tubes are vortexed and microfuged. After incubation of the tubes at 37° C. for 30 minutes, a portion of the tube contents is removed and placed into gel loading buffer. After mixing, the combination is loaded onto a gel, typically a 8M urea/5% acrylamide gel, which is exposed to film.
Radiolabeled RNA was used to detect the inhibition of RNase A, RNase T1, and RNase 1 by specific antibodies.
The “MIX” was prepared by combining 10× Assay Buffer (0.9 μl/rxn), 5 mg/ml yeast RNA (0.4 μl/rxn), ^32P-labeled β actin RNA (1 μl/rxn), and nuclease-free H2O (6.7 μl/rxn), for a total of 9 μl/rxn.
1× Assay Buffer was added first. Then Specific RNase Cocktail, Specific Anti-RNase Cocktail and MIX were added. The tubes are vortexed and microfuged, then incubated at 37° C. for 30 min (Table 9).
At the end of the incubation time, 10 μl of solution was removed from the tube and placed into 10 μl Gel Loading Buffer II. The combination was mixed thoroughly and loaded onto a 8M urea/5% acrylamide gel. The gel was exposed to film for 30 min. at −80° C. with an intensifying screen.

Chain of E. coli RNase 1 (P21338 24-268): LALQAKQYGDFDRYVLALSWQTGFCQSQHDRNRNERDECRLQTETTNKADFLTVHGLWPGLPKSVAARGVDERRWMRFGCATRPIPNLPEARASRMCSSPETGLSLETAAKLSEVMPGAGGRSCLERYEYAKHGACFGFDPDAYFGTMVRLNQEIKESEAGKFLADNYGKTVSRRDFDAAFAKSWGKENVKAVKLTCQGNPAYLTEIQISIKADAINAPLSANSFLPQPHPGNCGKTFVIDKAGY

For `O[C@H](CS)[C@H](O)CS` (racemic) [DTT, dithiothreitol], the “concentration that inhibited RNase 1” value (E. coli RNase 1) was 1–3 mM DTT inhibited 1 U RNase 1 during 30 minute incubation at 37 °C, the “concentration that inhibited RNase T1” value (RNase T1) was 5–10 mM DTT inhibited 0.15 U RNase T1 and the “inhibition of RNase A activity” value (RNase A) was “At 37° C., DTT up to 250 mM did not inhibit RNase Aactivity”.
